Measurements from US7906533B2, “Nicotinamide pyridinureas as vascular endothelial growth factor (VEGF) receptor kinase inhibitors” (Bayer Schering Pharma AG, priority 2004, dated 2011).

Columns and labels:
[1] = biological target: T1, human Cytochrome P 450 isoenzyme 2C9 (Homo sapiens, UniProt P11712); experiment: Cytochrome P450 Inhibition (2C9); type: in vitro ADME; conditions: baculovirus/insect cell-expressed human isoenzyme; read-out: IC50 CYP 2C9
T1 construct: host or cells: baculovirus/insect cells
T1 sequence (P11712 whole entry): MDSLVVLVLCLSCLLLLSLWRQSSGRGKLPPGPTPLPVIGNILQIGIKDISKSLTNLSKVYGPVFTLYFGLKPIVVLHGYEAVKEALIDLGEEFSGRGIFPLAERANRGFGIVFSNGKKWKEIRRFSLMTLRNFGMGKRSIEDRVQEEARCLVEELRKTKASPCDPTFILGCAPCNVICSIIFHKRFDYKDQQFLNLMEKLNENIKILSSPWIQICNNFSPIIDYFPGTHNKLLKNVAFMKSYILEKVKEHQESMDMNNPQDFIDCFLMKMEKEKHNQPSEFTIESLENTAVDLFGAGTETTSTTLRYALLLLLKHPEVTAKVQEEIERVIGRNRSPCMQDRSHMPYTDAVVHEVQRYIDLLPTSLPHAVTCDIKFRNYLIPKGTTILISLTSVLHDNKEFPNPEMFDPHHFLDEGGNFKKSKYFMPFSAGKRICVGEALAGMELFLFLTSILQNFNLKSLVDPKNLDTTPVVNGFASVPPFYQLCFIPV
Procedure: (§1) The Cytochrome P450 isoenzyme inhibition was performed according to the publication of Crespi et al. (Anal. Biochem., 1997, 248, 188-190) with use of the baculovirus/insect cell-expressed, human Cytochrome P 450 isoenzymes (2C9 and 2C19).

KDR-Kinase (VEGFR-2) = biological target: T2, KDR-Kinase (VEGFR-2) (Homo sapiens, UniProt P35968); experiment: KDR Kinase Inhibition; type: biochemical; conditions: GST-kinase domain fusion construct of the KDR kinase; poly(Glu4Tyr) substrate, 32P-γATP
T2 construct: GST-kinase domain fusion construct of the KDR kinase; GST
T2 sequence (P35968 834-1162 limits assumed, species assumed): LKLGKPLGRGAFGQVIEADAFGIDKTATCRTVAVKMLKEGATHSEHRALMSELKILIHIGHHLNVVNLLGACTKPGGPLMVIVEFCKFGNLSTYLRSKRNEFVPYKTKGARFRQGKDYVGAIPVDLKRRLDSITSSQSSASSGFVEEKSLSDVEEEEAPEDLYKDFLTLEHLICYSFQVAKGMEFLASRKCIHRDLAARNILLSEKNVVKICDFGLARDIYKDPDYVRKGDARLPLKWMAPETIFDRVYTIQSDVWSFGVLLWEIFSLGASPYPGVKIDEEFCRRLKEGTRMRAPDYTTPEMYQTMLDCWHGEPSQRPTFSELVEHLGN
Procedure: Kinase activity was measured with a GST-kinase domain fusion construct of the KDR kinase according to the following protocol to obtain concentration response curves. Components were added into a microtiterplate in the following sequence: 10 μl of inhibitor in threefold final concentration [3% DMSO in buffer (40 mM Tris Cl pH 7.5; 1 mM DTT, 1 mM MnCl2, 10 mM MgCl2, 2.5 Promille Polyethyleneglycol 20000)] and 10 μl of substrate mixture [24 μM ATP, 24 μg/ml poly(Glu4Tyr) in buffer, specific activity approx. 500 cpm/pmol ^32P-γATP]. Reaction was started by adding 10 μl of enzyme preparation diluted appropriately in buffer that contains 10 μM vanadate. After incubation for exactly 10 min the reaction was stopped by adding of 10 μl stop solution (250 mM EDTA). 10 μl of the reaction mixture were transferred to phosphocellulose filters. The filters were washed in 0.1% phosphoric acid, dried before meltilex scintillator was applied (Wallac, Perkin-Elmer) and the radioactivity was counted.

[2] = biological target: T3, human Cytochrome P 450 isoenzyme 2C19 (Homo sapiens, UniProt P33261); experiment: Cytochrome P450 Inhibition (2C19); type: in vitro ADME; conditions: baculovirus/insect cell-expressed human isoenzyme; read-out: IC50 CYP 2C19
T3 construct: host or cells: baculovirus/insect cells
T3 sequence (P33261 whole entry): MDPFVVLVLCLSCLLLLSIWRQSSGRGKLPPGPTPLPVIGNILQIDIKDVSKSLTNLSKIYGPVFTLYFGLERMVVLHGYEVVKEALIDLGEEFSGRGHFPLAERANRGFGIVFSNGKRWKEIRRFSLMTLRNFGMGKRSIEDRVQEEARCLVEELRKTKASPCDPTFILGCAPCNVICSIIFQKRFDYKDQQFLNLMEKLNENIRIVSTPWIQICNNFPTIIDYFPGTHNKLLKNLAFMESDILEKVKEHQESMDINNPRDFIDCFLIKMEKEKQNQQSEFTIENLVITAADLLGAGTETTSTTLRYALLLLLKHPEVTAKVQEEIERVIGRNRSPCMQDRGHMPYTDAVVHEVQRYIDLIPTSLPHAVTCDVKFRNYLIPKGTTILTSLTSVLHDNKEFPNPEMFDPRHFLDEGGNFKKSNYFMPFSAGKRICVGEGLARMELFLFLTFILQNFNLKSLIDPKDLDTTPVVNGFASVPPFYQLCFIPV
Procedure: as §1

Structure (SMILES)	melting point [°C]	IC50 [1] [µM]	IC50 (KDR-Kinase (VEGFR-2)) [µM]	IC50 [2] [µM]
CNC(=O)Nc1cc(CNc2ncccc2C(=O)Nc2ccc3cnn(C)c3c2)ccn1 [Example 1.2, N-(1-methyl-1H-indazol-6-yl)-2-{[2-(3-methyl-ureido)-pyridin-4-ylmethyl]-amino}-nicotinamide]	228 to 229	–	–	–
CNC(=O)Nc1cc(CNc2ncccc2C(=O)Nc2ccc3cn(C)nc3c2)ccn1 [Example 1.0, N-(2-methyl-2H-indazol-6-yl)-2-{[2-(3-methyl-ureido)-pyridin-4-ylmethyl]-amino}-nicotinamide]	205 to 207	11.7	0.01	> 30
Cn1cc2ccc(NC(=O)c3cccnc3NCc3ccnc(NC(=O)N4CCOCC4)c3)cc2n1 [Example 2.0, morpholine-4-carboxylic acid (4-{[3-(2-methyl-2H-indazol-6-ylcarbamoyl)-pyridin-2-ylamino]-methyl}-pyridin-2-yl)-amide]	–	> 30	0.029	> 30
CNC(=O)Nc1cc(CNc2ncccc2C(=O)Nc2cc3ccccc3cn2)ccn1 [Example 1.3, N-isoquinolin-3-yl-2-{[2-(3-methyl-ureido)-pyridin-4-ylmethyl]-amino}-nicotinamide]	191 to 192	–	–	–
CNC(=O)Nc1cc(CNc2ncccc2C(=O)Nc2cccc(C(F)(F)F)c2)ccn1 [Example 1.1, 2-{[2-(3-methyl-ureido)-pyridin-4-ylmethyl]-amino}-N-(3-trifluoromethyl-phenyl)-nicotinamide]	206 to 207	–	–	–
CNC(=O)Nc1cc(CNc2ncccc2C(=O)Nc2ccc3c(cnn3C)c2)ccn1 [Example 1.4, N-(1-methyl-1H-indazol-5-yl)-2-{[2-(3-methyl-ureido)-pyridin-4-ylmethyl]-amino}-nicotinamide]	219 to 220	–	–	–
